The values below come from patent EP0295604A1, “(E)-2-(p-Fluorophenethyl)-3-fluoroallylamine” (MERRELL DOW PHARMACEUTICALS INC., priority 1987, dated 1988).

In one data set the test system is MAO-A. Kind of data set: Chronic (14 day) oral administration, rat tissue MAO-A activity. The data set is classed as in vivo. An excerpt:
Following repeated daily administration for 14 days, (E)-2-p-fluorophenethyl)-3-fluoroallylamine remained selective for the MAO-B enzyme. From the irreversible inhibition, mode of action and the long half-life of the enzyme, a lower daily dose is needed to inhibit the enzyme.

For data set [1], the target named is T1, rat brain mitochondrial MAO-A (Rattus norvegicus, UniProt P21396).
T1 construct: from tissue; host or cells: rat brain mitochondria
T1 sequence (P21396 1-526): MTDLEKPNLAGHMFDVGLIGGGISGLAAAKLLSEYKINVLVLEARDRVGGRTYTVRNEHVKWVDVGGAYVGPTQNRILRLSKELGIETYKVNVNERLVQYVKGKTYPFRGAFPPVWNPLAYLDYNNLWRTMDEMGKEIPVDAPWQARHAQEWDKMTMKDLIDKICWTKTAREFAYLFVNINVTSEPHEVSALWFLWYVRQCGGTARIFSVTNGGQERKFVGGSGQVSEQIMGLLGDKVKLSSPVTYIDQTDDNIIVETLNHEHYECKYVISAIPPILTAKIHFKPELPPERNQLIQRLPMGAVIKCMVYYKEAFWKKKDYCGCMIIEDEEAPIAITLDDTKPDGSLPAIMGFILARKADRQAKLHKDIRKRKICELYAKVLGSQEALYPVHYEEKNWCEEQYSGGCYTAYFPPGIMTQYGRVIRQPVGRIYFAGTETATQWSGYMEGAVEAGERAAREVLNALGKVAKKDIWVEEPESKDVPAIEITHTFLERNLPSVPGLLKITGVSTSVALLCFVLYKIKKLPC
The data set is described as follows: In vitro inhibition of rat brain mitochondrial MAO-A. The data set is classed as biochemical. The source says:
In vivo, the compound is active orally, is potent and with a selectivity ratio of 44 remains selective for MAO-B.

Another data set relates to Striatal dopamine. Kind of data set: Prevention of MPTP neurotoxicity (striatal dopamine). The data set is classed as in vivo. The following applies: mice. An excerpt:
MPTP given parenterally to mice depletes striatal dopamine. This effect can be prevented by MAO-B, but not by MAO-A inhibitor.

In data set [2] the test system is tachycardia response to tyramine. Kind of data set: Potentiation of the cardiovascular effects of tyramine (tachycardia response). The data set is classed as in vivo. The following applies: for Tyramine potentiation ratio i.d.: intraduodenal tyramine 0.3-50 mg/kg; for Tyramine potentiation ratio i.v.: intravenous tyramine 1.25-80 µg/kg. An excerpt: Non-selective and MAO-A selective inhibitors are known to produce dangerous cardiovascular interactions with tyramine containing foods; the so-called "cheese reaction". L-Deprenyl is devoid of this effect.

In another data set the test system is MAO-B. Kind of data set: Chronic (14 day) oral administration, rat tissue MAO-B activity. The data set is classed as in vivo.
The target of data set [3] is T2, rat brain mitochondrial MAO-B (Rattus norvegicus, UniProt P19643).
T2 sequence (P19643 1-520): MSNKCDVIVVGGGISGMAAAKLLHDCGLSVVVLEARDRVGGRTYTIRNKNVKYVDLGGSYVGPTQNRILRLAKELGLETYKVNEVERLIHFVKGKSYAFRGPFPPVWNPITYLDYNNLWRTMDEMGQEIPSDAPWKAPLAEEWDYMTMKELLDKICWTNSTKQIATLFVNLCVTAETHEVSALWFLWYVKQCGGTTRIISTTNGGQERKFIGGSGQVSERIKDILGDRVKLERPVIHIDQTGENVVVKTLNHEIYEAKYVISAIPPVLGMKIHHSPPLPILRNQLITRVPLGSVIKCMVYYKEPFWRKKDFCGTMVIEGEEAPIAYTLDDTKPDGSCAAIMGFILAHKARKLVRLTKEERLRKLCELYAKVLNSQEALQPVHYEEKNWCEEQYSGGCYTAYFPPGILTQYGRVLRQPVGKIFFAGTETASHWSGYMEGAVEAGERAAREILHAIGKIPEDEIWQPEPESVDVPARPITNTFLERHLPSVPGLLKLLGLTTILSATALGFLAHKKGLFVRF
The data set is described as follows: In vitro inhibition of rat brain mitochondrial MAO-B. The settings on record: MAO-A vs MAO-B IC50. The data set is classed as biochemical.

`NC/C(=C/F)CCc1ccc(F)cc1` [(E)-2-(p-fluorophenethyl)-3-fluoroallylamine]: the “ED50 MAO-A” value with MAO-A (Brain) was over 5 mg/kg p.o; in the data set with MAO-A (Duodenum) it was >>5 mg/kg p.o; with MAO-A (Heart), 5 mg/kg p.o; in the data set on MAO-A (Liver), over 5 mg/kg p.o. The IC50 in data set [1] was 0.68 µM. Further, the Striatal dopamine in the data set with Striatal dopamine (MPTP plus compound) is 16.0 ± 0.4 ug/g ± SEM; in the data set with Striatal dopamine (compound alone, 1.25 mg/kg i.p.) it was 16.6 ± 0.9 ug/g ± SEM. Further, the “Tyramine potentiation ratio i.d.” value was 1.4 in data set [2] (1.8 mg/kg p.o.) and 1.3 in data set [2] (9 mg/kg p.o.). For the same molecule, the “Tyramine potentiation ratio i.v.” value was 0.8 in data set [2] (1.8 mg/kg p.o.) and 1.8 in data set [2] (9 mg/kg p.o.). For the same molecule, the interactions with tyramine entry in data set [2] (given acutely at 10 and 50 times the ED50 dose for inhibition of MAO-B) is “devoid of interactions with tyramine”. Also, the “ED50 MAO-B” value with MAO-B (Brain) is 0.025 mg/kg p.o; in the data set with MAO-B (Duodenum), 0.25 mg/kg p.o; in the data set on MAO-B (Heart) it was 0.5 mg/kg p.o; in the data set on MAO-B (Liver), 0.01 mg/kg p.o. For the same molecule, in data set [3], the “selectivity ratio in favor of MAO-B inhibition” value was found to be 190.
In the case of `CN1CC=C(c2ccccc2)CC1` [MPTP, N-methyl-4-phenyl-1,2,3,6-tetrahydropyridine, reference compound], the Striatal dopamine in the data set with Striatal dopamine (MPTP alone, 20 mg/kg i.p.) was 4.3 ± 0.4 ug/g ± SEM.

What is called IC50 is the point on the concentration scale where inhibition reaches its midpoint. Read a low IC50 as greater potency.
